PMC12649549, “Sequence Permutation Generated Lysine and Tryptophan-Rich Antimicrobial Peptides with Enhanced Therapeutic Index” (Antibiotics, 2025)
Like-named read-outs stand apart in the source and are kept apart here.

How the values were obtained:
[1] = tested on: A. baumannii 14B00100 (Acinetobacter sp., BCRC number 14B0100)
Protocol: (§1) The antibacterial and salt-resistant activity of the peptides was tested using Escherichia coli (ATCC 25922), Pseudomonas aeruginosa Migula (ATCC 27853), Acinetobacter sp. (BCRC number 14B0091, BCRC number 14B0097, and BCRC number 14B0100), and Staphylococcus aureus sp. strains (ATCC 25923, ATCC 33591, ATCC 33592, ATCC 33593, and ATCC 6538). All bacteria were obtained from the Food Industry Research and Development Institute (Hsinchu, Taiwan) and cultured in sterilized Müller-Hinton (MH) broth at 37 °C and 200 rpm for 8 h. The inoculum concentrations were determined by measuring the optical density at 600 nm (OD 600 = 1, approximately 10^8 CFU/mL) using an Ultrospec 2100 pro UV-Visible spectrophotometer (Biochrom Ltd., Cambridge, UK) after 8 h of culture.
(§2) The antibacterial activities of the peptides in Müller-Hinton (MH) broth and modified LYM broth were determined using the standard broth microdilution method as per Clinical and Laboratory Standards Institute (CLSI) guidelines. The LYM broth was prepared with specific components and adjusted to different conditions, including varying concentrations of NaCl and MgCl2, and different pH levels. To prepare the LYM broth, 5.4 mM KCl, 5.6 mM Na2HPO4, 0.5 mM MgSO4, and 1.0 mM sodium citrate were added. Additionally, 0.4 mg of ZnCl2, 2.0 mg of FeCl3·6H2O, 0.1 mg of CuSO4·5H2O, 0.1 mg of MnSO4·H2O, 0.1 mg of Na2B4O7∙10H2O, 700 mg of amino acid mixtures without tryptophan (Takara Bio Inc., San Jose, CA, USA), and 20 mg of L-tryptophan were added per liter of medium. The pH was adjusted to 7.4, and a vitamin mixture (100X, Sigma) and glucose concentration of 2% were added. For different conditions of LYM broth, NaCl concentrations of 300, 200, 150, and 50 mM, MgCl2 concentrations of 2.5, 1.5, and 0.5 mM, and pH levels of 6.5, 5.5, and 4.5 were adjusted. Bacterial strains were incubated in MH broth overnight, regrown, and diluted to a final concentration of 5 × 10^5 CFU/mL. Peptides were added to each well at final concentrations of 50, 25, 12.5, 6.25, 3.13, 1.56, and 0.78 µg/mL, and 99 µL of diluted microbes was loaded into each well of a polypropylene 96-well plate. […] The Morpheus HeatMap software (https://software.broadinstitute.org/morpheus/) was used to display MIC values on a color scale. All experiments were independently repeated three times.

[2] = tested on: A. baumannii 14B0091 (Acinetobacter sp., BCRC number 14B0091)
Protocol: as §1, §2

[3] = tested on: A. baumannii 14B0097 (Acinetobacter sp., BCRC number 14B0097)
Protocol: as §1, §2

[4] = tested on: Escherichia coli (ATCC 25922)
Protocol: as §1, §2

S. aureus ATCC 25923 = tested on: S. aureus ATCC 25923
Protocol: as §1, §2

S. aureus ATCC 6538 = tested on: S. aureus ATCC 6538
Protocol: as §1, §2

Gram-negative bacteria = experiment: Geometric mean MIC and therapeutic index, Gram-negative bacteria; format: cell-based; conditions: Gram-negative bacteria
Protocol: (§3) In this study, we aimed to investigate the potential of W5K series peptides for therapeutic use. To evaluate their efficacy for antibacterial therapy, we used the Therapeutic Index (TI) as a measure of their cell selectivity. The TI was calculated as the ratio of the concentration causing 10% hemolysis of human red blood cells (HC10) to the geometric mean minimum inhibitory concentration (GM) of the peptides against both Gram-negative and Gram-positive bacteria. This parameter was used to quantitatively assess the balance between antibacterial potency and cytotoxicity among the W5K derivatives.
as §2

Gram-positive bacteria = experiment: Geometric mean MIC and therapeutic index, Gram-positive bacteria; format: cell-based; conditions: Gram-positive bacteria
Protocol: as §3, §2

[5] = LYM broth, 0 mM NaCl, 16 h, 37 °C
[6] = LYM broth, 50 mM NaCl, 16 h, 37 °C
[7] = LYM broth, 100 mM NaCl, 16 h, 37 °C
[8] = LYM broth, 200 mM (NaCl), 16 h, 37 °C
[9] = LYM broth, 300 mM (NaCl), 16 h, 37 °C
[10] = MH broth, 5 × 10^5 CFU/mL, 16 h, 37 °C, repeated three times
[11] = MH broth, MIC >50 µg/mL counted as 100 µg/mL

Ac-KWLKWLAKKKKWR-NH2 [Peptide W5K04]
MIC [1, 5]: 1.56 µg/mL | MIC ([1]; LYM broth, 0.5 mM MgCl2): 1.56 µg/mL | MIC ([1]; LYM broth, 1.5 mM MgCl2): 3.13 µg/mL | MIC ([1]; LYM broth, 2.5 mM MgCl2): 3.13 µg/mL | MIC [1, 6]: 1.56 µg/mL | MIC [1, 7]: 3.13 µg/mL | MIC [1, 8]: 12.5 µg/mL | MIC [1, 9]: 25 µg/mL | MIC ([1]; LYM broth, pH 4.5): 1.56 µg/mL | MIC ([1]; LYM broth, pH 5.5): 1.56 µg/mL | MIC ([1]; LYM broth, pH 6.5): 1.56 µg/mL | MIC [1, 10]: 12.5 µg/mL | MIC [2, 5]: 1.56 µg/mL | MIC ([2]; LYM broth, 0.5 mM MgCl2): 1.56 µg/mL | MIC ([2]; LYM broth, 1.5 mM MgCl2): 3.13 µg/mL | MIC ([2]; LYM broth, 2.5 mM MgCl2): 3.13 µg/mL | MIC [2, 6]: 3.13 µg/mL | MIC [2, 7]: 3.13 µg/mL | MIC [2, 8]: 12.5 µg/mL | MIC [2, 9]: 50 µg/mL | MIC ([2]; LYM broth, pH 4.5): 3.13 µg/mL | MIC ([2]; LYM broth, pH 5.5): 3.13 µg/mL | MIC ([2]; LYM broth, pH 6.5): 1.56 µg/mL | MIC [2, 10]: 12.5 µg/mL | MIC [3, 5]: 1.56 µg/mL | MIC ([3]; LYM broth, 0.5 mM MgCl2): 1.56 µg/mL | MIC ([3]; LYM broth, 1.5 mM MgCl2): 3.13 µg/mL | MIC ([3]; LYM broth, 2.5 mM MgCl2): 3.13 µg/mL | MIC [3, 6]: 3.13 µg/mL | MIC [3, 7]: 3.13 µg/mL | MIC [3, 8]: 12.5 µg/mL | MIC [3, 9]: 50 µg/mL | MIC ([3]; LYM broth, pH 4.5): 3.13 µg/mL | MIC ([3]; LYM broth, pH 5.5): 1.56 µg/mL | MIC ([3]; LYM broth, pH 6.5): 1.56 µg/mL | MIC [3, 10]: 12.5 µg/mL | MIC [4, 5]: 6.25 µg/mL | MIC ([4]; LYM broth, 0.5 mM MgCl2): 12.5 µg/mL | MIC ([4]; LYM broth, 1.5 mM MgCl2): 12.5 µg/mL | MIC ([4]; LYM broth, 2.5 mM MgCl2): 12.5 µg/mL | MIC [4, 6]: 25 µg/mL | MIC [4, 7]: 50 µg/mL | MIC [4, 8]: >50 µg/mL | MIC [4, 9]: >50 µg/mL | MIC ([4]; LYM broth, pH 4.5): 6.25 µg/mL | MIC ([4]; LYM broth, pH 5.5): 3.13 µg/mL | MIC ([4]; LYM broth, pH 6.5): 3.13 µg/mL | MIC [4, 10]: 25 µg/mL | MIC (S. aureus ATCC 25923; [5]): 6.25 µg/mL | MIC (S. aureus ATCC 25923; LYM broth, 0.5 mM MgCl2): 6.25 µg/mL | MIC (S. aureus ATCC 25923; LYM broth, 1.5 mM MgCl2): 6.25 µg/mL | MIC (S. aureus ATCC 25923; LYM broth, 2.5 mM MgCl2): 6.25 µg/mL | MIC (S. aureus ATCC 25923; [6]): 12.5 µg/mL | MIC (S. aureus ATCC 25923; [7]): 25 µg/mL | MIC (S. aureus ATCC 25923; [8]): >50 µg/mL | MIC (S. aureus ATCC 25923; [9]): >50 µg/mL | MIC (S. aureus ATCC 25923; LYM broth, pH 4.5): 12.5 µg/mL | MIC (S. aureus ATCC 25923; LYM broth, pH 5.5): 6.25 µg/mL | MIC (S. aureus ATCC 25923; LYM broth, pH 6.5): 3.13 µg/mL | MIC (S. aureus ATCC 25923; [10]): 50 µg/mL | MIC (S. aureus ATCC 6538; [5]): 3.13 µg/mL | MIC (S. aureus ATCC 6538; LYM broth, 0.5 mM MgCl2): 3.13 µg/mL | MIC (S. aureus ATCC 6538; LYM broth, 1.5 mM MgCl2): 6.25 µg/mL | MIC (S. aureus ATCC 6538; LYM broth, 2.5 mM MgCl2): 6.25 µg/mL | MIC (S. aureus ATCC 6538; [6]): 6.25 µg/mL | MIC (S. aureus ATCC 6538; [7]): 25 µg/mL | MIC (S. aureus ATCC 6538; [8]): 50 µg/mL | MIC (S. aureus ATCC 6538; [9]): >50 µg/mL | MIC (S. aureus ATCC 6538; LYM broth, pH 4.5): 6.25 µg/mL | MIC (S. aureus ATCC 6538; LYM broth, pH 5.5): 6.25 µg/mL | MIC (S. aureus ATCC 6538; LYM broth, pH 6.5): 3.13 µg/mL | MIC (S. aureus ATCC 6538; [10]): 25 µg/mL | GM G− (geometric mean of the MIC values) (Gram-negative bacteria; [11]): 18.9 µg/mL | Therapeutic Index (TI) G− (Gram-negative bacteria; HC10/GM): 5.7 | GM G+ (geometric mean of the MIC values) (Gram-positive bacteria; [11]): 66.0 µg/mL | Therapeutic Index (TI) G+ (Gram-positive bacteria; HC10/GM): 1.6
